65 compounds from a melting point compilation (Tetko et al.; mined from patent text by program, amines drawn as free bases though some values may be those of a salt) can be followed below.

A value given as a limit tells only on which side of the number the result lay.

Usually melting point stands for the temperature, or range, at which the solid turns liquid. With `N#CSc1ccc(-c2nc3ccc(N)c(SC#N)c3nc2-c2ccco2)o1`, the melting point was in the range of 185 to 187 °C. The same measure for `CCc1cc(-c2ccc(NC(=O)N3CCc4cc(SC)c(C(F)(F)F)cc43)cc2)ccn1`: 158 to 161 °C. With `CCOC(=O)c1cc(SCc2ccccc2)c(Cc2ccccc2)c(S(N)(=O)=O)c1`, the melting point is 108 to 110 °C. The same measure for `CCn1ncc2c1NC(=O)CC2C(F)(F)F` (stereo not given): 129 to 130 °C; for `Cc1c(=O)[nH]c(=O)n2ccsc12`: more than 230 °C. Then `O=C(Nc1ccccc1)C1(C=Cc2ccccc2)SC=CC1OC(F)F` (stereo not given), with 80 to 82 °C; and `C#CC1(O)CCC2C3CCC4=CCCCC4C3C(=CF)CC21C` (stereo not given), with 103 to 104 °C. Then `O=C(O)C=CC(=O)c1cccc([N+](=O)[O-])c1`, with 199 to 201 °C; and `O=C(c1ccc(F)cc1)C1CCN(CCCn2c(=O)[nH]c3cc(Cl)ccc32)CC1`, with 164 °C.

`COC(=O)c1ccc(OC)c(O)c1O` had a melting point of 100 to 101 °C. The same measure for `CC(C)Oc1ccc(C(=O)O)c(C(=O)O)c1`: 116 to 118 °C; for `NS(=O)(=O)c1ccc(CCC(=O)O)cc1`: 97 to 99 °C; for `CN(C(=O)Nc1cccc(C(F)(F)F)c1)S(C)(=O)=O`: 72 °C. Regarding `CC(=O)N1CCc2[nH]cc3c(=O)n(-c4ccc(Cl)cc4)nc-3c2C1`, the melting point is more than 350 °C. Then `CC(C#N)c1ccc2nc(N)sc2c1` (stereo not given), with 165 °C. The same measure for `COc1cc2c(cc1C)CCN=C2C1(c2ccsc2)CC1`: 116 to 118 °C. The same measure for `CCc1cc2c(o1)S(=O)(=O)NC2=O`: 133 °C; for `N#CC(C(=O)NC1CC1)C(=O)C1CC1` (stereo not given): 136 to 138 °C. `CCOc1ccc(C(=O)NC2N(C)C(c3ccc(F)cc3)=NC2(C(F)(F)F)C(F)(F)F)cc1` (stereo not given) yielded a melting point of 115 to 116 °C. Turning to `OCc1ccc2ccccc2c1Br`, the melting point fell in the range of 101 to 102 °C.

Turning to `CC(C)[C@H](NC(=O)OCc1csc(N(C)C)n1)C(=O)N[C@@H](Cc1ccccc1)[C@@H](O)C[C@H](Cc1ccccc1)NC(=O)OCc1cncs1`, the melting point was 157 to 159 °C. The same measure for `CCc1nnc(-c2ccc(F)c(F)c2Nc2ccc(I)cc2F)o1`: 97 to 98 °C; for `c1ccc(OCC2CCN(CCCOc3cccc4[nH]ccc34)CC2)cc1`: 118 to 119 °C. The same measure for `Cc1nnc(CN(C)C)n1-c1ccc(Br)cc1C(=O)c1ccccn1`: 127 to 128 °C. The same measure for `CCCc1cc2c(cc1C=Cc1ccc(C(=O)OC)cc1)C(C)(C)CCC2(C)C`: 120 to 121 °C; for `Nn1cc(C(=O)NCc2ccc(Cl)cc2)c(=O)c2cc(CCCO)ccc21`: 187 to 188 °C.

`O=C(O)Cc1cnn(-c2ccccc2)c1-c1ccccc1` had a melting point of 107 to 110 °C. The same measure for `CCCCCCCC[C@H](C(=S)Nc1c(SC)ccc2ncccc12)c1ccccc1`: 126 to 128 °C. Then `COC(=O)C#CC(=O)c1ccc(Cl)cc1`, with 49 to 50 °C. The same measure for `CCC(Oc1ccccc1)c1nnc(N2C(=O)N(C)CC2O)s1` (stereo not given): 137 to 138 °C. As for `CCOC(=O)c1oc(SC)c2c1CCC(Br)C2=O` (stereo not given), the melting point was in the range of 130 to 131 °C. The same measure for `Cc1cc(C)cc(COC2CCCCC2(N)c2ccccc2)c1` (stereo not given): 75 to 78 °C; for `Cc1ccc(C(=O)NCc2ccc(O)c3ncccc23)cc1`: 137 to 139 °C; for `O=C=Nc1cc(OC(=O)Oc2cc(N=C=O)c(F)cc2Cl)c(Cl)cc1F`: 108 to 109 °C. The same measure for `N#Cc1ccc(-c2cn(-c3ccc(OC(F)(F)F)cc3)cn2)cc1`: 155 °C; for `COc1ccc(OC)c(CCC(C)(O)CC2CCCCN2)c1` (stereo not given): 85 to 90 °C. Then `COc1ccc(C(=O)Nc2ccc3ccc(Oc4ccccc4)nc3n2)nn1`, with 95 °C; and `O=C1CCCN1c1ccc(CCN2CCN(c3ccccc3Cl)CC2)cc1`, with 132 °C. `COc1ccc(CC(NC(C)=O)C(=O)O)cc1` (racemic) had a melting point of 144 to 146 °C. Then `O=C(CBr)Nc1ccc(I)cc1C(=O)c1ccccc1Cl`, with 150 to 152 °C; and `N#Cc1cnc2cc(/C=C/CCCCCCCCCN3CCOCC3)ccc2c1Nc1ccc(Cl)cc1Cl`, with 105 to 106 °C; and `O=C(NCCC1OCCO1)c1cc(Br)c(Br)[nH]1`, with 155 to 157 °C. The same measure for `O=Cc1cc(O)c(O)cc1Cl`: 217 to 218 °C; for `COc1ccc(F)cc1C(C)(C)CC(O)(Cn1cnc(=O)c2ccccc21)C(F)(F)F` (stereo not given): 118 to 121 °C. Then `C#CCN(c1nnc(C)c2ccccc12)c1nc2ccccc2n1-c1ccccc1`, with 50 to 53 °C; and `Cc1cn(C(C)(C(=O)N(C)C)c2ccccc2)nc1-c1ccccc1` (stereo not given), with 107 to 109 °C.

For `CC(CN1CC=C(c2ccc(Cl)cc2)CC1)C(O)c1ccccc1` (stereo not given), the melting point was in the range of 103 to 105 °C.

In turn, `Cc1cc2c(-c3cccc(N)c3)c(CC(=O)Nc3ccc(Cl)cc3C(F)(F)F)c(=O)oc2cc1Cl` had a melting point of 206 to 207 °C. Then `COc1cc(Nc2nc3cccc(-c4ccc(NC(C)=O)cc4)c3o2)cc(OC)c1OC`, with 265 to 270 °C; and `COc1cc2ncc(C#N)c(Nc3ccc(F)c(Cl)c3)c2cc1NC(=O)C=CCN(C)CCO`, with 210 to 214 °C; and `CC(=O)Nc1nc(OCC(C)C)c2nc(Cl)ccc2n1`, with 168 °C. The same measure for `Cn1cnc(COc2nn3c(-c4ccccc4F)nnc3cc2C23CCC(C2)C3)n1`: 170 to 172 °C; for `CC(=O)c1ccc(NS(C)(=O)=O)c(C(=O)Nc2ccc(F)cc2F)c1`: 153 to 155 °C; for `O=[N+]([O-])c1cc(Cl)ccc1-n1cccc1`: 55 to 56 °C.

Compound `CC[C@H](C)[C@@H](CO)NC(=O)[C@H](Cc1c[nH]cn1)NC(=O)[C@H](Cc1cccc2ccccc12)NC(=O)OCc1ccccc1` gave a melting point of 197 to 199 °C.

Turning to `CCCCOc1cc(C(=O)O)cc(N)c1-c1ccccc1`, the melting point lay in the range of 122 to 124 °C. The same measure for `NC(=O)N(O)Cc1cc(Oc2ccc(Cl)cc2)cs1`: 141 to 142 °C; for `O=C1c2cccc3cc4ccccc4c(c23)C(=O)N1CCCNCCN1C(=O)c2cccc3cc4ccccc4c(c23)C1=O`: 260 °C. The same measure for `O=C(CCl)Nc1cc(C(=O)NC(CO)CO)cc(C(=O)NC(CO)CO)c1`: 222 to 224 °C; for `COc1cccc(-c2nn3c(c2C(=O)O)-c2ccccc2CC3)c1`: 190 °C. Then `COc1ccc(C(=C/C=C/C(=O)NCCCCc2cccnc2)c2ccc(OC)cc2)cc1`, with 76 to 77 °C; and `CNS(=O)(=O)Cc1ccccc1Br`, with 72.5 to 74 °C. Take `CCc1nc(NCC(C)O)c2c(n1)c(C)nn2C` (stereo not given): the melting point fell in the range of 116 to 119 °C. The same measure for `NCCn1nc2c3c(c(Cl)ccc31)C(=O)c1c(OCc3ccccc3)ccc(OCc3ccccc3)c1-2`: 176 to 178 °C; for `CCOCc1nc2c(N)nc3cc(-c4ccccc4)ccc3c2n1CCCN1CCCC1=O`: 199 to 203 °C.
